Measured values taken from US20230312587A1, “PTERIDINONE COMPOUNDS AND USES THEREOF” (Vertex Pharmaceutical Incorporated, priority 2018, published 2023).
pEC50, pIC50, pKi: −log10 of the molar value. Where two headings read alike, the source gives them in different places.

What was measured:
Plk1 = Plk1 (Homo sapiens (Human), UniProt P53350); assay: PLK1 inhibition assay (radioactive-phosphate incorporation); assay type: biochemical; conditions: Ki(app), read-out: PLK1 - 33P.ENZ - CB 10 Ki
Method: Compounds were screened for their ability to inhibit Plk1 using a radioactive-phosphate incorporation assay. Assays were carried out in a mixture of 25 mM HEPES (pH 7.5), 10 mM MgCl2, 25 mM NaCl, and 2 mM DTT. Final substrate concentrations were 20 μM [γ-33P]ATP (35mCi 33P ATP/mmol ATP, Perkin Elmer/Sigma Chemicals) and 9 uM Sam68 protein. Assays were carried out at room temperature in the presence of 15 nM Plk1. An assay stock buffer solution was prepared containing all of the reagents listed above, with the exception of ATP and the test compound of interest. 0.75 μL of DMSO stock containing serial dilutions of the test compound (typically starting from a final concentration of 10 μM with 2-fold serial dilutions—final DMSO concentration 1.5%) was placed in a 384 well plate followed by addition of 25 μL [γ-33P]ATP (final concentration 20 μM). The reaction was initiated by addition of 25 μL of the assay stock buffer solution.
The reaction was stopped after 45 minutes by the addition of 25 μL 30% trichloroacetic acid (TCA) containing 10 mM cold ATP. The entire quenched reaction was transferred to a 384-well glass fiber filter plate (Millipore, Cat no. MZFBNOW50). The plate was washed with 3×5% TCA. After drying, 40 μL of Ultima Gold liquid scintillation cocktail (Perkin Elmer) was added to the well prior to scintillation counting in a PerkinElmer TopCount.
After removing mean background values for all of the data points, Ki(app) data were calculated from non-linear regression analysis of the initial rate data using the Prism software package (GraphPad Prism, GraphPad Software, San Diego California, USA).

[1] = tested on: β-catenin-TCF-mediated reporter transcription activity in Colo 205 cells; assay: Colo 205 reporter assay (TCF/LEF luciferase); assay type: cell-based; conditions: Colo 205 TCF/LEF luciferase reporter, five hours after addition of compound, read-out: TCF reporter Colo205 IC50
Procedure, shortened: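 Luciferase signal from a TCF/LEF-driven reporter, stably integrated in Colo 205 colon cancer cells, was measured 5 h after compound addition.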

[2] = tested on: Colo205-TCF/LEF-Luciferase (Luc) tumor; assay: In vivo inhibition of TCF/LEF reporter activity in Colo-205 tumors; design: concentration or dose not given beside the values; conditions: TCF/LEF luciferase reporter in Colo-205 tumors, nu/nu mice, oral gavage
Procedure, shortened: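 Female nu/nu mice carried subcutaneous Colo205-TCF/LEF-luciferase tumours (200–500 mm^3), n=4 per group. Compound was given by oral gavage in 1:3:5:1 EtOH:DMSO:PEG-400:H2O at 10 ml/kg, with vehicle as control. Luciferase activity in tumour lysates (Steady-Glo) was normalised to BCA protein.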

[3] = tested on: non-small cell lung cancer (NSCLC) adenocarcinoma line D33966; assay: In vivo efficacy, NSCLC patient derived xenograft OD33966; design: species or system nu/nu mice; conditions: Mus musculus, 336 h; NSCLC PDX OD33966, oral, 100 mpk qd, treatment day 14; read-out: % TGI
Method: Female immune deficient mice (Charles River, 4-6 wks age) were anesthetized with Ketamine-Xylazine (140 mg/kg-14 mg/kg ip) and shaved. Puralube eye ointment was applied to the eyes to prevent desiccation of the corneas. Betadine and 70% ethanol was applied to the shaved location to sterilize the skin at the location of the incision. The animals were placed in a biosafety cabinet for the duration of the surgery. Using scissors, an 8 to 10 mm incision was made in the lateral flank of the skin. A tumor fragment weighing between 50 and 150 mg was placed under the skin at the incision site using forceps, and staples were used to close the incision. The staples were removed 5 to 7 days after surgery. Starting approximately two weeks after implantation, animals were weighed, and tumors were measured using caliper twice weekly. Tumor volume was calculated using the formula: volume=length×width^2×0.52.
Compound administration began when xenografts reached approximately 100-300 mm3 and continued until control xenografts reached […] of the animal's body weight. Test compounds were administered orally by gastric gavage. Percent tumor growth inhibition (TG) was calculated on the indicated treatment day. Percent TGI is defined as: [1−(del T/del C)]×100%, where del T is the final minus initial average volumes of the treated group, and del C is the final minus initial average volumes of the control group. […] The tested compounds were administered orally. Vehicle control consisted of either 0.5% methylcellulose/0.1% sodium lauryl sulfate or 20% captisol. Tumor volumes were determined by caliper measurement twice a week.

[4] = tested on: ER stress marker proteins XBP1(s) and ATF4; assay: ER stress marker immunoblot in parental HepG2 vs WFS1 KO cells; assay type: cell-based; conditions: 6 hours, immunoblotting
Text: (§1) In contrast WFS1 depletion had no effect on thapsigargin induced changes in global gene expression (FIG. 7.)

[5] = tested on: global gene expression in HepG2 cells; assay: Global gene expression changes in HepG2 vs WFS1 depleted cells; assay type: cell-based; conditions: HepG2, 6 hours of exposure
Text: as §1

HepG2 XBP1(u)-Luc cells = assay: HepG2 XBP1 reporter assay; assay type: cell-based; conditions: Homo sapiens, 6 h
Method: HepG2 hepatoma cells were transduced with a retrovirus encoding the cDNA for unspliced (u) XBP1, which contains a non-processed intron, fused to the cDNA for firefly luciferase. Upon induction of ER stress, the non-processed intron of XBP1(u) is spliced out by active IRE1alpha endonuclease. The resulting spliced (s) XBP1 is now in frame with luciferase which causes the production of active luciferase protein, resulting in bioluminescence
HepG2 XBP1(u)-Luc cells were plated […] Cultured cells with a stably transfected reporter construct were plated at approximately 30,000 cells per well into 96 well multi-well plates for twenty four hours. The testing compounds were then added to the wells in 3-fold serial dilutions using a twenty seven micromolar top concentration. A series of control wells for each cell type received only compound solvent. Six hours after the addition of compound, reporter activity for luciferase was assayed, by addition of the SteadyGlo luminescence reagent (Promega). The reporter luminescence activity was measured using Pherastar plate reader (BMG Labtech). Readings was normalized to DMSO only treated cells, and normalized activities were then used in the IC50 calculations. The HepG2 XBP1 reporter assay data are summarized in Table 47: A<0.6 μM; 0.6 μM≤B<2.0 μM; 2.0 μM≤C<10.0 μM; D≥10.0 μM.

Colo-205 cells = assay: Calcium flux assay (FLIPR Calcium 5); assay type: cell-based; conditions: Homo sapiens, COLO 205, 0.6 h, FLIPR Calcium 5, measured over 36 minutes
Method: Compounds described herein induced ER stress by causing intracellular calcium flux. Calcium flux was measured in Colo-205 cells using the FLTPR® Calcium 5 Assay Kit according to manufacter's protocol (Molecular Devices, Cat. #R8186) on a FLIPR3 system (Molecular Devices). Calcium flux is measured over 36 minutes. The Colo-205 calcium flux assay data are summarized in Table 47: A<0.6 μM; 0.6 μM≤B<2.0 μM; 2.0 μM≤C<10.0 μM; D≥10.0 μM.

[6] = molecular target: HEK293 membranes over-expressing WFS-1 (Homo sapiens (Human), UniProt O76024); assay: Radioligand displacement assay (tritiated Compound 136 probe); assay type: binding; conditions: displacement of tritiated Compound 136
Sequence of HEK293 membranes over-expressing WFS-1 (O76024 whole entry): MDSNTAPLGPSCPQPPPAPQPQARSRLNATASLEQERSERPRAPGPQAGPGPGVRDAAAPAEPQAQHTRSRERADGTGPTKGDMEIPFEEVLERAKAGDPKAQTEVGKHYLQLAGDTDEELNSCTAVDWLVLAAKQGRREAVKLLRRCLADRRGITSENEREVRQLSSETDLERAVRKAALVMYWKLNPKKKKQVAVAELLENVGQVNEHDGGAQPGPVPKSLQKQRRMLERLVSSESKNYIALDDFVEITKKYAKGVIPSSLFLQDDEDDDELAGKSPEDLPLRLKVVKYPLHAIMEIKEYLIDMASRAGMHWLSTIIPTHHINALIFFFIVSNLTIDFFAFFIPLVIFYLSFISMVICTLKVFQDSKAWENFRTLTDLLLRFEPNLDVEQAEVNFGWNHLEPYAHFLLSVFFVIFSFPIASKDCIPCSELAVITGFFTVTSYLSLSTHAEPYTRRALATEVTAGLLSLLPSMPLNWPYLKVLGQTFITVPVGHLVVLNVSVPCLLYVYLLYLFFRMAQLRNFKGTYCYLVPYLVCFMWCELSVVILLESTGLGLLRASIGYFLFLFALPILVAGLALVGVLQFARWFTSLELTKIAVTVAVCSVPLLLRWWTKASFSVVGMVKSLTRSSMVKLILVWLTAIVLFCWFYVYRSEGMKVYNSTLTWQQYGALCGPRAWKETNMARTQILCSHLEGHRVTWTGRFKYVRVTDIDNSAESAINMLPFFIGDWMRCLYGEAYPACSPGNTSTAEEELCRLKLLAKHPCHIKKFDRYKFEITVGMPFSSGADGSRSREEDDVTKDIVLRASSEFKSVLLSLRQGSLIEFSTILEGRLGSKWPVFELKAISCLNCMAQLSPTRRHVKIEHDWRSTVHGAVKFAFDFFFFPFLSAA
Procedure, shortened: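 WFS-1-overexpressing HEK293 membranes were preincubated 10 min with compound, then tritiated probe was added for 90 min at room temperature. Bound probe was collected by filtration on PEI-pretreated GF/B filters, washed and scintillation-counted. IC50 came from a 3-parameter fit of bound probe vs compound concentration.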

Sequence of Plk1 (P53350 whole entry, species assumed): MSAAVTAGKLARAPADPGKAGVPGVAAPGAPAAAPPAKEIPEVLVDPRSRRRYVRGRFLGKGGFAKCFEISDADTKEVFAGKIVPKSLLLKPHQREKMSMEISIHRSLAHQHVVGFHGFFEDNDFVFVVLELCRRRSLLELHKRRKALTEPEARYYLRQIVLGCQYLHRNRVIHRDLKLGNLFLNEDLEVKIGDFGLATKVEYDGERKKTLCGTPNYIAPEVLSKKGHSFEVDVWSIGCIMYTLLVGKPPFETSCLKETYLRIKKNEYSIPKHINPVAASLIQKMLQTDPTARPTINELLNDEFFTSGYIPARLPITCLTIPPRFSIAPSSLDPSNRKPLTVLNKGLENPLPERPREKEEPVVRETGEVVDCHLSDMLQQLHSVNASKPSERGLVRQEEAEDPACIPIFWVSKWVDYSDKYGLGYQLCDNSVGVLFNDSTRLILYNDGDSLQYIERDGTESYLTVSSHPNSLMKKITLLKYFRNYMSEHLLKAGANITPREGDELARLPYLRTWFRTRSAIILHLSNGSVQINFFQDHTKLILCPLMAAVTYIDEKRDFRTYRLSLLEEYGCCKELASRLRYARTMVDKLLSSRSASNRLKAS

| pKi (Plk1) | pIC50 ([1]; Homo sapiens, COLO 205, 5 h) | SMILES | other results |
| --- | --- | --- | --- |
| < 5.40 | > 6.52 | Cc1nc(NCc2cnn(Cc3cc(F)c(F)c(F)c3)c2)nc2c1N(C)C(=O)[C@H](C)N2C [Compound 14, (7S)-4,5,7,8-tetramethyl-2-(((1-(3,4,5-trifluorobenzyl)-1H-pyrazol-4-yl)methyl)amino)-7,8-dihydropteridin-6(5H)-one] | Percent Remaining Activity at 8 hrs after Dosing [2]: 33% |
| – | > 6.52 | C[C@H]1C(=O)Nc2cnc(NCc3cnn(Cc4cc(F)c(F)c(F)c4)c3)nc2N1C [Compound 42, (7S)-7,8-dimethyl-2-(((1-(3,4,5-trifluorobenzyl)-1H-pyrazol-4-yl)methyl)amino)-7,8-dihydropteridin-6(5H)-one] | Percent Remaining Activity at 8 hrs after Dosing [2]: 20%; inhibition in vivo at 100 mg/kg [3]: 79.6% |
| < 5.40 | > 6.52 | Cc1nc(NCc2cnn(Cc3ccc(F)cc3)c2)nc2c1N(C)C(=O)C1(CC1)N2C [Compound 223, 2′-(((1-(4-fluorobenzyl)-1H-pyrazol-4-yl)methyl)amino)-4′,5′,8′-trimethyl-5′,8′-dihydro-6′H-spiro[cyclopropane-1,7′-pteridin]-6′-one] | Percent Remaining Activity at 8 hrs after Dosing [2]: 39% |
| < 5.40 | > 6.52 | CCC[C@H]1C(=O)N(C)c2cnc(NCc3cnn(Cc4cc(F)c(F)c(F)c4)c3)nc2N1C [Compound 23, (7S)-5,8-dimethyl-7-propyl-2-(((1-(3,4,5-trifluorobenzyl)-1H-pyrazol-4-yl)methyl)amino)-7,8-dihydropteridin-6(5H)-one] | – |
| < 5.40 | > 6.52 | Cc1nc(NCc2cnn([C@H]3C[C@H](c4ccc(F)cc4)C3)c2)nc2c1NC(=O)[C@H](C)N2C [Compound 112, (7S)-2-(((trans-1-(3-(4-fluorophenyl)cyclobutyl)-1H-pyrazol-4-yl)methyl)amino)-4,7,8-trimethyl-7,8-dihydropteridin-6(5H)-one] | – |
| < 5.40 | > 6.52 | CCN1C(=O)[C@H](C)N(CC)c2nc(NCc3cnn(Cc4ccc(F)cc4)c3)ncc21 [Compound 30, (7S)-5,8-diethyl-2-(((1-(4-fluorobenzyl)-1H-pyrazol-4-yl)methyl)amino)-7-methyl-7,8-dihydropteridin-6(5H)-one] | – |
| < 5.40 | 6.00 to 6.52 | CCN1C(=O)[C@](C)(CC)N(CC)c2nc(NCc3cnn(Cc4ccc(F)cc4)c3)ncc21 [Compound 34, (7S)-5,7,8-triethyl-2-(((1-(4-fluorobenzyl)-1H-pyrazol-4-yl)methyl)amino)-7-methyl-7,8-dihydropteridin-6(5H)-one] | – |
| < 5.40 | > 6.52 | CN1C(=O)C(C)(C)N(C)c2nc(NCc3cnn(Cc4cc(F)c(F)c(F)c4)c3)ncc21 [Compound 229, 5,7,7,8-tetramethyl-2-(((1-(3,4,5-trifluorobenzyl)-1H-pyrazol-4-yl)methyl)amino)-7,8-dihydropteridin-6(5H)-one] | Percent Remaining Activity at 8 hrs after Dosing [2]: 49% |
| – | – | C/C=C(/C)C(=O)O[C@H]1C(C)=C2[C@H]([C@@H]1OC(=O)CCCCCCC)[C@@](C)(OC(C)=O)C[C@H](OC(=O)CCC)[C@@]1(O)[C@H]2OC(=O)[C@@]1(C)O [thapsigargin, reference compound] | effect of WFS1 depletion on induction of XBP1(s) and ATF4 [4]: much lesser effect; effect of WFS1 depletion on changes in global gene expression [5]: no effect |
| < 5.40 | – | Cc1nc(N[C@H]2CC[C@H](Oc3cc(F)c(F)c(F)c3)C2)nc2c1NC(=O)[C@H](C)N2C [Compound 268, (S)-4,7,8-trimethyl-2-(((1S,3S)-3-(3,4,5-trifluorophenoxy)cyclopentyl)amino)-7,8-dihydropteridin-6(5H)-one] | pIC50 [1]: 6.00 to 6.52 |
| < 5.40 | 6.00 to 6.52 | CCC[C@H]1C(=O)N(C)c2cnc(NCc3cnn(Cc4ccc(F)cc4)c3)nc2N1C [Compound 24, (7S)-2-(((1-(4-fluorobenzyl)-1H-pyrazol-4-yl)methyl)amino)-5,8-dimethyl-7-propyl-7,8-dihydropteridin-6(5H)-one] | – |
| < 5.40 | ≤ 5.30 | C[C@H]1C(=O)Nc2cnc(NCc3cnn(Cc4cc(F)c(O)c(F)c4)c3)nc2N1C [Compound 50, (7S)-2-(((1-(3,5-difluoro-4-hydroxybenzyl)-1H-pyrazol-4-yl)methyl)amino)-7,8-dimethyl-7,8-dihydropteridin-6(5H)-one] | – |
| < 5.40 | > 6.52 | Cc1nc(N[C@H]2C[C@H](OCc3cc(F)c(F)c(F)c3)C2)nc2c1NC(=O)[C@H](C)N2C [Compound 254, (7S)-4,7,8-trimethyl-2-((trans-3-((3,4,5-trifluorobenzyl)oxy)cyclobutyl)amino)-7,8-dihydropteridin-6(5H)-one] | pIC50 (HepG2 XBP1(u)-Luc cells): > 6.22; pEC50 (Colo-205 cells): 5.70 to 6.22; pIC50 [6]: 6.22 to 7.22 |
| < 5.40 | > 6.52 | Cc1nc(N[C@H]2C[C@@H](Cn3nccc3C(F)(F)F)C2)nc2c1NC(=O)[C@H](C)N2C [Compound 275, (7S)-4,7,8-trimethyl-2-((cis-3-((5-(trifluoromethyl)-1H-pyrazol-1-yl)methyl)cyclobutyl)amino)-7,8-dihydropteridin-6(5H)-one] | – |
